# Values quoted from earlier work as cited in patent US20190343121A1, “Cinmethylin Microcapsules with a Shell Made of Tetramethylxylylene Diisocyanate and a Polyamine with at Least Three Amine Groups” (BASF Agro B.V., priority 2016, published 2019).
# Details: at 20° C.
substance,measurement,value
(±)-2-exo-(2-methylbenzyloxy)-1-methyl-4-isopropyl-7-oxabicyclo[2.2.1]heptane [Cinmethylin],solubility in water,63 µg/mL
